Consider 14 substances from patent US20110039762A1, “TARGETED ANTIMICROBIAL MOIETIES” (C3 JIAN, INC., priority 2009, published 2011).

One assay relates to S. mutans. Briefly: Kill or inhibit growth/proliferation; morphology, biofilm and growth disruption (Tables 5, 6). Note: test concentration or dose not given here. The assay is classed as cell-based, Streptococcus mutans. Also on record: key: A: Peptide aggregates; B: Less hyphal formation; Clumps; Diffuse clumps and small polyps; F: Diffuse growth; H: Thin; I: Growth inhibition; Microcolony formation; Rippled; Small polyps; Thick; W: Halo formation on top, microlonies on bottom.

The next assay relates to P. gingivalis. The description is as above. It is filed as cell-based, Porphyromonas gingivalis. The arrangement: key: A: Peptide aggregates; B: Less hyphal formation; Clumps; Diffuse clumps and small polyps; F: Diffuse growth; H: Thin; I: Growth inhibition; Microcolony formation; Rippled; Small polyps; Thick; W: Halo formation on top, microlonies on bottom.
Assay [1] deals with microorganisms (e.g., bacteria, yeasts, fungi). Briefly: Targeting peptide binding to target microorganisms (Table 3). To be noted: preferably 1x PBS; for Target(s) (microorganisms bound by the targeting peptide): peptide binding in aqueous buffers varied by peptide solubility; for Target(s): microorganism(s) the targeting peptide binds.
A further assay relates to microorganisms. Briefly: Peptides having multiple activities (targeting/binding, antimicrobial, growth or phenotype altering). The text has this:
In certain embodiments, peptides described herein can have multiple activities. Thus for example, a peptide can have both binding/targeting activity and antimicrobial activity. Such peptides can be used, e.g., in a chimeric construct, for any or all of these properties. Thus, for example, a peptide designated “B” in Table 8 can be used as a targeting peptide. If it is also designated G or M it can also be used for antimicrobial activity.

Another assay deals with F. nucleatum. In words: Kill or inhibit growth/proliferation; morphology, biofilm and growth disruption (Tables 5, 6). Note: test concentration or dose not given here. It is filed as cell-based, Fusobacterium nucleatum. The arrangement: key: A: Peptide aggregates; B: Less hyphal formation; Clumps; Diffuse clumps and small polyps; F: Diffuse growth; H: Thin; I: Growth inhibition; Microcolony formation; Rippled; Small polyps; Thick; W: Halo formation on top, microlonies on bottom.

Assay [2] concerns MRSA. Briefly: MIC (broth microdilution). It is filed as cell-based, Methicillin-resistant Staphylococcus aureus. How it is done:
(§1) Typically, the in vitro antimicrobial activity of antimicrobial agents is tested using standard NCCLS bacterial inhibition assays, or MIC tests (see, National Committee on Clinical Laboratory Standards “Performance Standards for Antimicrobial Susceptibility Testing,” NCCLS Document M100-S5 Vol. 14, No. 16, December 1994; “Methods for dilution antimicrobial susceptibility test for bacteria that grow aerobically-Third Edition,” Approved Standard M7-A3, National Committee for Clinical Standards, Villanova, Pa.).
(§2) Briefly, ˜1×10^5 cfu/mL bacteria were diluted in TH (S. mutans), or Mueller-Hinton (MH) broth (all other organisms) and distributed to 96-well plates. Serially-diluted (2-fold) peptides were then added and the plates incubated at 37° C. for 18-24 h. […] All experiments were conducted 10 times.

For a further assay, the system named is A. niger. Briefly: MIC (broth microdilution). The assay is classed as cell-based, Aspergillus niger. How it is done: as §1, §2
For orientation: Broth dilution looks for growth in wells or tubes with falling amounts of substance.

For assay [3], the system named is B. subtilis. Briefly: MIC (broth microdilution). It is filed as cell-based, Bacillus subtilis. On the procedure:
as §1, §2

Assay [4] concerns B. subtilis. In words: Kill or inhibit growth/proliferation; morphology, biofilm and growth disruption (Tables 5, 6). Note: test concentration or dose not given here. The assay is classed as cell-based, Bacillus subtilis. Also on record: key: A: Peptide aggregates; B: Less hyphal formation; Clumps; Diffuse clumps and small polyps; F: Diffuse growth; H: Thin; I: Growth inhibition; Microcolony formation; Rippled; Small polyps; Thick; W: Halo formation on top, microlonies on bottom.

Another assay deals with C. jeikeium. The description is as above. It is filed as cell-based, Corynebacterium jeikeium. The arrangement: key: A: Peptide aggregates; B: Less hyphal formation; Clumps; Diffuse clumps and small polyps; F: Diffuse growth; H: Thin; I: Growth inhibition; Microcolony formation; Rippled; Small polyps; Thick; W: Halo formation on top, microlonies on bottom.
Another assay deals with E. faecalis. The assay is described as above. It is filed as cell-based, Enterococcus faecalis. Also on record: key: A: Peptide aggregates; B: Less hyphal formation; Clumps; Diffuse clumps and small polyps; F: Diffuse growth; H: Thin; I: Growth inhibition; Microcolony formation; Rippled; Small polyps; Thick; W: Halo formation on top, microlonies on bottom.
In the next assay the test system is C. albicans. Described as above. The assay is classed as cell-based, Candida albicans. The arrangement: key: A: Peptide aggregates; B: Less hyphal formation; Clumps; Diffuse clumps and small polyps; F: Diffuse growth; H: Thin; I: Growth inhibition; Microcolony formation; Rippled; Small polyps; Thick; W: Halo formation on top, microlonies on bottom.
Assay [5] concerns S. epidermidis. It is filed as cell-based, Staphylococcus epidermidis. To be noted: S. epidermidis. On the procedure:
as §1, §2

The subject of assay [6] is MRSA. In words: Kill or inhibit growth/proliferation; morphology, biofilm and growth disruption (Tables 5, 6). Note: test concentration or dose not given here. The assay is classed as cell-based, Methicillin-resistant Staphylococcus aureus. Also on record: key: A: Peptide aggregates; B: Less hyphal formation; Clumps; Diffuse clumps and small polyps; F: Diffuse growth; H: Thin; I: Growth inhibition; Microcolony formation; Rippled; Small polyps; Thick; W: Halo formation on top, microlonies on bottom.

Assay [7] concerns S. epidermidis. The description is as above. The assay is classed as cell-based, Staphylococcus epidermidis. The arrangement: key: A: Peptide aggregates; B: Less hyphal formation; Clumps; Diffuse clumps and small polyps; F: Diffuse growth; H: Thin; I: Growth inhibition; Microcolony formation; Rippled; Small polyps; Thick; W: Halo formation on top, microlonies on bottom.
In assay [8] the test system is S. pneumoniae. The description is as above. It is filed as cell-based, Streptococcus pneumoniae. The arrangement: key: A: Peptide aggregates; B: Less hyphal formation; Clumps; Diffuse clumps and small polyps; F: Diffuse growth; H: Thin; I: Growth inhibition; Microcolony formation; Rippled; Small polyps; Thick; W: Halo formation on top, microlonies on bottom.
Assay [9] relates to S. pneumoniae. In words: MIC (broth microdilution). It is filed as cell-based, Streptococcus pneumoniae. How it is done:
as §1, §2

In another assay the test system is P. aeruginosa. Briefly: Kill or inhibit growth/proliferation; morphology, biofilm and growth disruption (Tables 5, 6). Note: test concentration or dose not given here. The assay is classed as cell-based, Pseudomonas aeruginosa. The arrangement: key: A: Peptide aggregates; B: Less hyphal formation; Clumps; Diffuse clumps and small polyps; F: Diffuse growth; H: Thin; I: Growth inhibition; Microcolony formation; Rippled; Small polyps; Thick; W: Halo formation on top, microlonies on bottom.

Setting [10] is: peptide binding conducted in aqueous buffers varied by peptide solubility.

Entries after “also recorded” stand apart in the source; their conditions may differ. Ends that are not written are not given here.
Throughout, for Organism, effect (morphology, biofilm and growth disruption): test concentration or dose not given here.
Throughout, for Organism, effect: test concentration or dose not given here.

With “PF-C180: peptide having multiple activities (TVEELDKAFTWGAAAALAIGVIAINVGLAAGYCYNNNDVF; Peptide with targeting and/or antimicrobial activity)”, the “Organism, effect (morphology, biofilm and growth disruption)” value in the assay on S. mutans is reported as “S. mutans (S)”; in the assay with P. gingivalis it was “P. gingivalis (R)”. Besides, in [1], the “Target(s) (microorganisms bound by the targeting peptide)” value is listed as “F. nucleatum; also recorded: P. gingivalis; also recorded: S. mutans; also recorded: T. denticola”. Besides, the Activities entry in the assay with microorganisms is on record as “G B”.

For “PF-C293 (IIIILPKIYLVCKTV; Peptide with targeting and/or antimicrobial activity)”, the “Organism, effect (morphology, biofilm and growth disruption)” value is given as “S. mutans (F)” in the assay with S. mutans, “F. nucleatum (T)” in the assay with F. nucleatum and “P. gingivalis (R)” in the assay on P. gingivalis.

Regarding “PF-C136: peptide having multiple activities (LILSYQASVYPLFAYLCQQKDY; Peptide with targeting and/or antimicrobial activity)”, the “Organism, effect (morphology, biofilm and growth disruption)” value in the assay with F. nucleatum is reported as “F. nucleatum (C)”; in the assay with P. gingivalis, “P. gingivalis (R)”. The “Target(s) (microorganisms bound by the targeting peptide)” value in assay [1] was “A. naeslundii; also recorded: F. nucleatum; also recorded: P. gingivalis; also recorded: S. mutans; also recorded: T. denticola”. The Activities result with microorganisms was “G B”.

On to “PF-C088: peptide having multiple activities (DIANNILNSVSERLIIA; Peptide with targeting and/or antimicrobial activity)”, for which the “Organism, effect (morphology, biofilm and growth disruption)” value was “S. mutans (I)” with S. mutans, “F. nucleatum (H)” in the assay on F. nucleatum and “P. gingivalis (R)” in the assay with P. gingivalis. Besides, the “Target(s) (microorganisms bound by the targeting peptide)” value in [1] is given as “A. naeslundii; also recorded: F. nucleatum; also recorded: P. gingivalis; also recorded: S. mutans; also recorded: T. denticola”. Also, in the assay with microorganisms, the Activities entry is “G B”.

In the case of RESKLIAMADMIRRRI-NH2 [PF-545], the MIC entry in the assay on MRSA [2] is “MRSA , 50 μM”; with A. niger, “A. niger, 50 μM”; against B. subtilis [3], “B. subtilis, 25 μM”. Besides, the “Organism, effect” value in the assay on B. subtilis [4] is reported as “B. subtilis (I)”; with C. jeikeium, “C. jeikeium (H)”; with E. faecalis, “E. faecalis (H)”; in the assay on C. albicans, “C. albicans (B)”. In addition, in assay [1] (setting [10]), the “Target(s)” value is “S. epidermidis; also recorded: E. coli; also recorded: P. aeruginosa; also recorded: S. pneumoniae; also recorded: E. faecalis; also recorded: C. jeikeium”. Besides, the Activities entry in the assay on microorganisms is recorded as “G B M”.

Consider KFQGEFTNIGQSYIVSASHMSTSLNTGK [PF-583], for which the MIC result against MRSA [2] is “MRSA , 50 μM”; against S. epidermidis [5] it was “S. epidermidis, 50 μM”. Further, the “Organism, effect” value is listed as “MRSA (I)” with MRSA [6], “S. epidermidis (I)” in the assay with S. epidermidis [7], “S. mutans (F)” in the assay on S. mutans and “S. pneumoniae (D)” in the assay on S. pneumoniae [8]. Moreover, in the assay on microorganisms, the Activities result is “G B M”.

As for SLQSQLGPCLHDQRH [PF-448], the MIC result is recorded as “A. niger, 25 μM” against A. niger and “S. pneumoniae, 50 μM” against S. pneumoniae [9]. Besides, the “Organism, effect” value in the assay with S. pneumoniae [8] is recorded as “S. pneumoniae (I)”. Further, in assay [1] (setting [10]), the “Target(s)” value is “S. epidermidis; also recorded: M. luteus; also recorded: P. mirabilis; also recorded: E. coli; also recorded: S. pneumoniae; also recorded: E. faecalis; also recorded: C. jeikeium; also recorded: C. jejuni”. In addition, the Activities result with microorganisms is listed as “G B M”.

Consider “PF-C084: peptide having multiple activities (FFSVIFLFGLNYLICNSPLFNILR; Peptide with targeting and/or antimicrobial activity)”, for which the “Organism, effect (morphology, biofilm and growth disruption)” value was “S. mutans (F)” in the assay on S. mutans, “F. nucleatum (T)” in the assay with F. nucleatum and “P. gingivalis (R)” with P. gingivalis. In addition, in assay [1], the “Target(s) (microorganisms bound by the targeting peptide)” value is listed as “A. naeslundii; also recorded: F. nucleatum; also recorded: P. gingivalis; also recorded: S. mutans”. Also, the Activities result in the assay with microorganisms is listed as “G B”.

LSEMERRRLRKRA-NH2 [PF-529]: the MIC result is reported as “A. niger, 50 μM” in the assay with A. niger and “S. pneumoniae, 50 μM” against S. pneumoniae [9]. In the assay on S. pneumoniae [8], the “Organism, effect” value is “S. pneumoniae (H)”. Also, the “Target(s)” value in assay [1] (setting [10]) is “S. epidermidis and E. coli and C. albicans and MRSA and S. pneumoniae and E. faecalis and C. jeikeium”. Also, the Activities entry in the assay with microorganisms was “G B M”.

Regarding “PF-C089 (MPKRHYYKLEAKALQFGLPFAYSPIQLLK; Peptide with targeting and/or antimicrobial activity)”, the “Organism, effect (morphology, biofilm and growth disruption)” value in the assay with P. gingivalis is “P. gingivalis (R)”.

Regarding NYAVVSHT [PF-209], in the assay with MRSA [2], the MIC result was “MRSA , 50 μM”. Moreover, the “Organism, effect” value is on record as “MRSA (I)” in the assay with MRSA [6], “S. epidermidis (C)” with S. epidermidis [7] and “P. aeruginosa (H)” in the assay on P. aeruginosa. In assay [1] (binding in aqueous buffers depending on peptide solubility), the “Target(s)” value is “C. albicans; also recorded: C. jeikeium; also recorded: C. jejuni”. Moreover, the Activities result in the assay with microorganisms was “G B M”.

Consider “NTNDLLQAFELMGLGMAGVFIVLGILYIVAELLIKIFPVNN [PF-C194]”, for which the “Organism, effect (morphology, biofilm and growth disruption)” value in the assay on S. mutans is “S. mutans (F)”; with F. nucleatum, “F. nucleatum (T)”; in the assay on P. gingivalis it was “P. gingivalis (T)”. In addition, the “Target(s) (microorganisms bound by the targeting peptide)” value in assay [1] is recorded as “A. naeslundii; also recorded: F. nucleatum; also recorded: P. gingivalis; also recorded: S. mutans; also recorded: T. denticola”. Besides, the Activities entry in the assay with microorganisms is recorded as “G B”.

In the case of KFSDQIDKGQDALKDKLGDL [PF-525], the MIC entry with A. niger was “A. niger, 50 μM”; with S. pneumoniae [9], “S. pneumoniae, 50 μM”. In addition, in the assay with S. pneumoniae [8], the “Organism, effect” value was “S. pneumoniae (H)”. For the same substance, in the assay on microorganisms, the Activities entry is reported as “G M”.

With “PF-C052: peptide having multiple activities (SRFRNGV; Peptide with targeting and/or antimicrobial activity)”, the “Organism, effect (morphology, biofilm and growth disruption)” value in the assay with P. gingivalis is listed as “P. gingivalis (H)”. In addition, in assay [1], the “Target(s) (microorganisms bound by the targeting peptide)” value was “A. naeslundii; also recorded: F. nucleatum; also recorded: S. mutans”. In addition, the Activities result in the assay on microorganisms is “G B”.
